Assay results from patent publication US20230104936A1, “TRPML MODULATORS” (Casma Therapeutics, Inc., priority 2019, published 2023).

Test system: TFEB
Test: TFEB nuclear translocation assay, HeLa wt cells
Assay type: cell-based
Conditions: 2 hrs compound treatment, Table 1 does not say HeLa wt or TRPML1 KO
Description: For the TFEB nuclear translocation assay, HeLa wt or HeLa TRPML1 KO cells were plated at 2700 cells/well into black-walled, 384-well Cell carrier Ultra tissue culture treated plates in complete media and incubated overnight. The next day, cells are treated for 2 hrs with compounds and incubated at 37° C. Cells were then fixed for 30 minutes at room temperature in 4% final PFA and washed five times with 90 μL PBS. PBS is aspirated from the wells and the cells are blocked with 7.5 μL blocking buffer (1:1 PBS/Odyssey block buffer containing 0.1% triton x-100 and 1% goat serum). After 30-60 minutes of block, 7.5 μL of primary anti-TFEB (rabbit) antibody is added for a final dilution of 1:200 antibody in 15 μL blocking buffer. Plates are incubated overnight at 4° C. The following day, plates are washed again into PBS, 90 μL with 5 washes, all PBS is aspirated from the wells and the cells are incubated for 1 hr in 1:1000 goat-anti rabbit Alexa 488 secondary antibody, also containing 10 μg/mL Hoechst 33342. After the 1 hr room temperature incubation, plates are washed a final time into PBS, sealed with foil and imaged with an automated epifluorescence microscopy (PerkinElmer Operetta CLS). Four different fields were imaged per well using ×20 magnification for DAPI and FITC filter sets. Images were quantified using PerkinElmer Harmony software, briefly: apply flatfield correction (basic/advanced) for input images. Use the Find Nuclei building block with channel set at Hoechst to find the nuclei. Use the Find cytoplasm building block with channel set to Alexa 488 to find the cytoplasm. Use select cell region with Channel set at Alexa 488 and region of interest as Nuclei and define outer border at 0 μm and inner at 45 μm to cover complete nuclei. Use select cell region with Channel set at Alexa 488 and region of interest as ring region and define outer border at −5 μm and inner at 0 μm to define a ring around the nucleus. Use the find calculate intensity parameter to calculate intensity of the nuclear region and the ring region. Define results as Number of nuclei and ratio of A/B where A is Intensity of Nuclei and B is intensity of the ring region.
The compound numbers correspond to the compound numbers above in Tables A or B. Compounds having an activity designated as “++++” provided an AC50 of ≤2.00 μM; compounds having an activity designated as “+++” provided an AC50 of 2.01-8.00 μM; compounds having an activity designated as “++” provided an AC50 of 8.01-9.99 μM; and compounds having an activity designated as “+” provided an AC50 of ≥10.00 μM.

`CN(C)S(=N)(=O)c1ccc(S(=O)(=O)Nc2ccc(F)cc2N2CCC(c3c(F)cccc3F)CC2)cc1` (stereo not drawn) [Compound A-226, 4-({2-[4-(2,6-difluorophenyl)piperidin-1-yl]-4-fluorophenyl}sulfamoyl)-N,N-dimethylbenzene-1-sulfonoimidamide] was tested, and the AC50 (Homo sapiens, HeLa, 2 h) was no more than 2000 nM.

With `CN(C)S(=O)(=O)c1ccc(S(=O)(=O)Nc2ccccc2N2CCC(O)(c3ccc(F)cn3)CC2)cc1` [Compound A-209, N4-{2-[4-(5-fluoropyridin-2-yl)-4-hydroxypiperidin-1-yl]phenyl}-N1,N1-dimethylbenzene-1,4-disulfonamide] the AC50 (Homo sapiens, HeLa, 2 h) was no more than 2000 nM.

In the case of `CC(c1cccc(F)c1N1CCC(CN2C3CCC2COC3)CC1)S(=O)(=O)c1ccc(S(C)(=O)=O)cc1` (single isomer, unassigned) [Compound A-913, 8-((1-(2-fluoro-6-(1-((4-(methylsulfonyl)phenyl)sulfonyl)ethyl)phenyl)piperidin-4-yl)methyl)-3-oxa-8-azabicyclo[3.2.1]octane], the AC50 is reported as no more than 2000 nM.

`C[C@@H]1CN(CC2CCN(c3c(F)cccc3NS(=O)(=O)c3ccc(C(F)F)cc3)CC2)C[C@H](C)O1` [Compound A-766, 4-(difluoromethyl)-N-[2-(4-{[(2R,6S)-2,6-dimethylmorpholin-4-yl]methyl}piperidin-1-yl)-3-fluorophenyl]benzene-1-sulfonamide] was tested, and the AC50 (Homo sapiens, HeLa, 2 h) was no more than 2000 nM.

For `CCC(C1CCN(c2c(F)cccc2NS(=O)(=O)c2ccc(S(=N)(=O)N(C)C)cc2)CC1)N1CCOCC1` (stereo not drawn) [Compound A-857, 4-[(3-fluoro-2-{4-[1-(morpholin-4-yl)propyl]piperidin-1-yl}phenyl)sulfamoyl]-N,N-dimethylbenzene-1-sulfonoimidamide], the AC50 (Homo sapiens, HeLa, 2 h) was no more than 2000 nM.

For `CS(=O)(=O)c1ccc(S(=O)(=O)Nc2ccccc2N2CCC3(CCO3)CC2)cc1` [Compound A-333, 4-methanesulfonyl-N-(2-{1-oxa-7-azaspiro[3.5]nonan-7-yl}phenyl)benzene-1-sulfonamide], the AC50 (Homo sapiens, HeLa, 2 h) was no less than 10000 nM.

With `Cc1ccc(S(=O)(=O)Nc2ccccc2N2CCN(C(=O)C(C)c3ccccc3)CC2)cc1` (stereo not drawn) [Compound A-334, 4-methyl-N-{2-[4-(2-phenylpropanoyl)piperazin-1-yl]phenyl}benzene-1-sulfonamide] the AC50 (Homo sapiens, HeLa, 2 h) was 2010 to 8000 nM.

`CC1(C)CC2(CCN(c3ccccc3NS(=O)(=O)c3ccc4c(c3)OC3(CCC3)O4)CC2)CO1` [Compound A-723, N-(2-{3,3-dimethyl-2-oxa-8-azaspiro[4.5]decan-8-yl}phenyl)spiro[1,3-benzodioxole-2,1′-cyclobutane]-6-sulfonamide] gave an AC50 (Homo sapiens, HeLa, 2 h) of no more than 2000 nM.

Work on `CC(c1cccc(F)c1N1CCC(CN2CCC(F)(F)CC2)CC1)S(=O)(=O)c1ccc(S(=O)(=O)N(C)C)cc1` (stereo not drawn) [Compound A-803, 4-((1-(2-(4-((4,4-difluoropiperidin-1-yl)methyl)piperidin-1-yl)-3-fluorophenyl)ethyl)sulfonyl)-N,N-dimethylbenzenesulfonamide] yielded an AC50 of no more than 2000 nM.

`CCOCCC1CCN(c2ccccc2NS(=O)(=O)c2ccc(S(=O)(=O)N(C)C)cc2)CC1` [Compound A-498, N4-{2-[4-(2-ethoxyethyl)piperidin-1-yl]phenyl}-N1,N1-dimethylbenzene-1,4-disulfonamide] gave an AC50 (Homo sapiens, HeLa, 2 h) of no more than 2000 nM.

In the case of `CN(C)S(=O)(=O)c1ccc(S(=O)(=O)Nc2ccccc2N2CCN(C(=O)C3(C)CCCO3)CC2)cc1` (stereo not drawn) [Compound A-476, N1,N1-dimethyl-N4-{2-[4-(2-methyloxolane-2-carbonyl)piperazin-1-yl]phenyl}benzene-1,4-disulfonamide], the AC50 (Homo sapiens, HeLa, 2 h) is reported as 2010 to 8000 nM.

In the case of `CN(C)C(=O)c1ccc(S(=O)(=O)Nc2ccccc2N2CCC(c3ccc(Cl)cc3F)CC2)cc1` [Compound A-44, 4-({2-[4-(4-chloro-2-fluorophenyl)piperidin-1-yl]phenyl}sulfamoyl)-N,N-dimethylbenzamide], the AC50 (Homo sapiens, HeLa, 2 h) is reported as no more than 2000 nM.

With `CC(c1cccc(F)c1N1CCC(CN2C[C@@H](C)O[C@@H](C)C2)CC1)S(=O)(=O)c1ccc(S(=O)(=O)C(F)F)cc1` (stereo partly drawn) [Compound A-800, (2R,6S)-4-[(1-{2-[1-(4-difluoromethanesulfonylbenzenesulfonyl)ethyl]-6-fluorophenyl}piperidin-4-yl)methyl]-2,6-dimethylmorpholine] the AC50 (Homo sapiens, HeLa, 2 h) was no more than 2000 nM.

`CC(C)(C)C(=O)N1CCN(c2ccccc2NS(=O)(=O)c2ccc(C3CC3(F)F)cc2)CC1` (stereo not drawn) [Compound A-528, 4-(2,2-difluorocyclopropyl)-N-{2-[4-(2,2-dimethylpropanoyl)piperazin-1-yl]phenyl}benzene-1-sulfonamide] showed an AC50 (Homo sapiens, HeLa, 2 h) of 2010 to 8000 nM.

Compound `O=S(=O)(Nc1cccc(F)c1N1CCC(CN2C3CCC2COC3)CC1)c1ccc2c(c1)CCC2` [Compound A-882, N-{3-fluoro-2-[4-({3-oxa-8-azabicyclo[3.2.1]octan-8-yl}methyl)piperidin-1-yl]phenyl}-2,3-dihydro-1H-indene-5-sulfonamide] has an AC50 (Homo sapiens, HeLa, 2 h) of no more than 2000 nM.

`CN(C)S(=O)(=O)c1ccc(S(=O)(=O)Nc2ccccc2N2CCN([C@@H]3C[C@@H]4CC[C@H]3C4)CC2)cc1` (racemic) [Compound A-421, rac-N4-(2-{4-[(1R,2S,4S)-bicyclo[2.2.1]heptan-2-yl]piperazin-1-yl}phenyl)-N1,N1-dimethylbenzene-1,4-disulfonamide] showed an AC50 (Homo sapiens, HeLa, 2 h) of no more than 2000 nM.

`CC(C)C(=O)c1ccc(S(=O)(=O)Nc2ccccc2N2CCC3(CC2)COC(C)(C)C3)cc1` [Compound A-657, N-(2-{3,3-dimethyl-2-oxa-8-azaspiro[4.5]decan-8-yl}phenyl)-4-(2-methylpropanoyl)benzene-1-sulfonamide] showed an AC50 (Homo sapiens, HeLa, 2 h) of 8010 to 9990 nM.

With `CC(c1cccnc1)N1CCN(c2ccccc2NS(=O)(=O)c2ccc(S(=O)(=O)N(C)C)cc2)CC1` (stereo not drawn) [Compound A-505, N1,N1-dimethyl-N4-(2-{4-[1-(pyridin-3-yl)ethyl]piperazin-1-yl}phenyl)benzene-1,4-disulfonamide] the AC50 (Homo sapiens, HeLa, 2 h) was 2010 to 8000 nM.

`CN(C)S(=O)(=O)c1ccc(S(=O)(=O)Nc2nc(N3CCN(c4ccc(Cl)cc4F)CC3)nn2C)cc1` [Compound A-68, N1-(3-(4-(4-chloro-2-fluorophenyl)piperazin-1-yl)-1-methyl-1H-1,2,4-triazol-5-yl)-N4,N4-dimethylbenzene-1,4-disulfonamide] showed an AC50 (Homo sapiens, HeLa, 2 h) of no less than 10000 nM.

`CS(=O)(=O)c1ccc(S(=O)(=O)Nc2ccccc2N2CCC(c3c(F)cc(F)cc3F)CC2)cc1` [Compound A-132, 4-methanesulfonyl-N-{2-[4-(2,4,6-trifluorophenyl)piperidin-1-yl]phenyl}benzene-1-sulfonamide] showed an AC50 (Homo sapiens, HeLa, 2 h) of no more than 2000 nM.

Compound `CCCOc1ccc(S(=O)(=O)Nc2ccccc2N2CCN(C(=O)C(C)(C)C)CC2)cc1` [Compound A-573, N-{2-[4-(2,2-dimethylpropanoyl)piperazin-1-yl]phenyl}-4-propoxybenzene-1-sulfonamide] has an AC50 (Homo sapiens, HeLa, 2 h) of 8010 to 9990 nM.

With `CN(C)S(=O)(=O)c1ccc(S(=O)(=O)Nc2ccccc2N2CC3CC(C2)N3c2ccc(Cl)cc2F)cc1` [Compound A-30, N4-{2-[6-(4-chloro-2-fluorophenyl)-3,6-diazabicyclo[3.1.1]heptan-3-yl]phenyl}-N1,N1-dimethylbenzene-1,4-disulfonamide] the AC50 (Homo sapiens, HeLa, 2 h) was no more than 2000 nM.

Compound `C[C@@H]1CN(CC2CCN(c3c(F)cccc3NS(=O)(=O)c3ccc(S(=O)(=O)C(F)F)cc3)CC2)C[C@H](C)O1` [Compound A-758, 4-difluoromethanesulfonyl-N-[2-(4-{[(2R,6S)-2,6-dimethylmorpholin-4-yl]methyl}piperidin-1-yl)-3-fluorophenyl]benzene-1-sulfonamide] has an AC50 (Homo sapiens, HeLa, 2 h) of no more than 2000 nM.

For `COCC1(C)CCN(c2ccccc2NS(=O)(=O)c2cccc(C3CC3(F)F)c2)CC1` (stereo not drawn) [Compound A-651, 3-(2,2-difluorocyclopropyl)-N-{2-[4-(methoxymethyl)-4-methylpiperidin-1-yl]phenyl}benzene-1-sulfonamide], the AC50 (Homo sapiens, HeLa, 2 h) was no more than 2000 nM.

`CN(C)S(=O)(=O)c1ccc(S(=O)(=O)Nc2ccccc2N2CCC(C(=O)Nc3ccccc3)CC2)cc1` [Compound A-338, 1-{2-[4-(dimethylsulfamoyl)benzenesulfonamido]phenyl}-N-phenylpiperidine-4-carboxamide] was tested, and the AC50 (Homo sapiens, HeLa, 2 h) was 2010 to 8000 nM.

For `COc1ccc(S(=O)(=O)Nc2cccnc2N2CCN(c3ccc(C#N)cc3F)CC2)cc1` [Compound A-117, N-{2-[4-(4-cyano-2-fluorophenyl)piperazin-1-yl]pyridin-3-yl}-4-methoxybenzene-1-sulfonamide], the AC50 (Homo sapiens, HeLa, 2 h) was no less than 10000 nM.

With `CN(C)S(=O)(=O)c1ccc(S(=O)(=O)N2CC(c3ccc(Cl)cc3F)Nc3ccccc32)cc1` (stereo not drawn) [Compound A-171, 4-{[3-(4-chloro-2-fluorophenyl)-1,2,3,4-tetrahydroquinoxalin-1-yl]sulfonyl}-N,N-dimethylbenzene-1-sulfonamide] the AC50 (Homo sapiens, HeLa, 2 h) was 2010 to 8000 nM.
